The values that follow come from patent US8609862B2, “Use of an adrenal hormone-modifying agent” (Novartis AG, priority 2010, dated 2013).

This assay addresses T1, Human CYP11B1 (Homo sapiens, UniProt P15538).
T1 construct: made in house; host or cells: V79-4 cell line #618 (stably selected with geneticin and hygromycin); sonicated homogenate, 500 x g supernatant
T1 sequence (P15538 25-503): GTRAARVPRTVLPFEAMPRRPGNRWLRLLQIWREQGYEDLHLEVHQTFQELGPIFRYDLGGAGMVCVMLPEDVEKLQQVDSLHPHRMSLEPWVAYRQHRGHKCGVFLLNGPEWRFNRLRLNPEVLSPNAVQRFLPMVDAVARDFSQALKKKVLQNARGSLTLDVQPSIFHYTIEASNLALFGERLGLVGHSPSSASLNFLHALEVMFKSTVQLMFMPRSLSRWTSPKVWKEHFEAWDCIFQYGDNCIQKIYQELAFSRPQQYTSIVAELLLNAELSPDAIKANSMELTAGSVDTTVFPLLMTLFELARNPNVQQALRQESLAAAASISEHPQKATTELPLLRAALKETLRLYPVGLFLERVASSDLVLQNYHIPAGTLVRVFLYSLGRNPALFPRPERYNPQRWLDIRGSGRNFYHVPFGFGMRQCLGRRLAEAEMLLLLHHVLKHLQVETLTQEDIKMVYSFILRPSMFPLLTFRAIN
The assay can be described thus: In vitro human CYP11B1 assay. The note with it: V79-4 cell homogenate, 11-deoxycortisol to cortisol, SPA. The class given is biochemical. The source says: Complete EDTA-free protease inhibitor tablets were obtained from Roche Applied Science (Indianapolis, Ind.). Dulbecco's modified Eagle medium (DMEM), antibiotic, geneticin, hygromycin, and fetal bovine serum (FBS) were products of Invitrogen (Carlsbad, Calif.). NADPH Regeneration Solution A and Solution B were purchased from BD Biosciences Clontech (Palo Alto, Calif.). Anti-mouse PVT SPA beads and [1,2,6,7-^3H(N)]hydrocortisone were acquired from Amersham (Piscataway, N.J.) and PerkinElmer (Boston, Mass.), respectively.
Following 4 days of growth, cells were washed once with PBS, scraped and collected in PBS, and centrifuged at 1,300 rpm for 6 min. […] The sonication procedure was repeated 3 more times, with a 5 min rest on ice between sonications. The sonicated material was then spun at 500×g for 4 min to remove unbroken cells. The supernatant was brought to a final glycerol concentration of 5%, flash-frozen in liquid nitrogen, and stored at −80° C.
The CYP11B1 assays were performed in 96-well U-bottom non-tissue-culture-treated plates. […] Plates were then centrifuged at 2,400 rpm for 6 min, and 50 μl of supernatant was removed for measurement of cortisol content by scintillation proximity assay (SPA). Measurement of cortisol was performed using a 96-well plate format. […] Anti-mouse PVT SPA beads (50 μl) were then added to each well and incubated overnight at room temperature prior to counting in a Microbeta plate counter. The amount of cortisol in each sample was calculated by comparing with a standard curve generated using known quantities of the hormone. Full concentration-response curves of an inhibitor were performed at least 3 times. The IC50 values were derived using a non-linear least squares curve-fitting program from IDBS XLfit.

Broadly, the IC50 is the concentration at which inhibition is half-maximal. Lower therefore signals higher potency.

`N#Cc1ccc(C2CCCCc3cncn32)c(Br)c1` (racemic) [3-bromo-4-(6,7,8,9-tetrahydro-5H-imidazo[1,5-a]azepin-5-yl)benzonitrile racemate, 3-bromo-4-(6,7,8,9-tetrahydro-5H-imidazo[1,5-a]azepin-5-yl)benzonitrile] gave an IC50 of 0.2 nM. This lies in the sub-nanomolar range. Consider `N#Cc1ccc(C2CCCCc3cncn32)c(-c2ccc(F)cc2)c1` (single isomer, unassigned) [4′-fluoro-6-(6,7,8,9-tetrahydro-5H-imidazo[1,5-a]azepin-5-yl)biphenyl-3-carbonitrile], for which the half-maximal inhibitory concentration (IC50) came to 0.3 nM. With `COc1ccc(CN(C)C(=O)C2(c3ccc(C#N)cc3Cl)CCc3cncn32)cc1` (stereo not drawn) [5-(2-chloro-4-cyanophenyl)-N-(4-methoxybenzyl)-N-methyl-6,7-dihydro-5H-pyrrolo[1,2-c]imidazole-5-carboxamide] the figure was 0.8 nM.
